Results reported in ChEMBL document CHEMBL3297725, “Acridone alkaloids from Glycosmis chlorosperma as DYRK1A inhibitors” (J Nat Prod, 2014).

Key:
[1] = target: Cyclin-dependent kinase 1 (Homo sapiens, UniProt P06493); assay: Inhibition of CDK1 (unknown origin) assessed as inhibition of phosphate incorporation into substrate in presence of radiolabeled ATP
[2] = target: Cyclin-dependent kinase 5 (Homo sapiens, UniProt Q00535); assay: Inhibition of CDK5 (unknown origin) assessed as inhibition of phosphate incorporation into substrate in presence of radiolabeled ATP
[3] = system: Casein kinase 1 delta/epsilon (Sus scrofa); assay: Inhibition of CK1 (porcine brain) assessed as inhibition of phosphate incorporation into substrate in presence of radiolabeled ATP
[4] = target: Dual specificity protein kinase CLK1 (Mus musculus) (UniProt P22518); assay: Inhibition of CLK1 (mouse recombinant) assessed as inhibition of phosphate incorporation into substrate in presence of radiolabeled ATP
[5] = target: Glycogen synthase kinase-3 (Homo sapiens, UniProt P49840+P49841); assay: Inhibition of GSK3 (unknown origin) assessed as inhibition of phosphate incorporation into substrate in presence of radiolabeled ATP; assay type: protein assay
[6] = target: Dual specificity tyrosine-phosphorylation-regulated kinase 1A (Homo sapiens, UniProt Q13627); assay: Inhibition of DYRK1A (unknown origin) assessed as inhibition of phosphate incorporation into substrate in presence of radiolabeled ATP
[7] = Inhibition of CDK1/cyclin B in starfish oocytes assessed as inhibition of phosphate incorporation using histone 1 and [gamma-33P]ATP as substrate after 30 mins by scintillation counting analysis; parameters: species or system Patiria pectinifera
[8] = Inhibition of CK1 delta/epsilon in porcine brain assessed as inhibition of phosphate incorporation using RRKHAAIGpSAYSITA and [gamma-33P]ATP as substrate after 30 mins by scintillation counting analysis; parameters: species or system Sus scrofa
CDK2/Cyclin A2 = CDK2/Cyclin A2 (Homo sapiens, UniProt P24941); assay: Inhibition of CDK2/cyclin A (unknown origin); assay type: protein-complex assay
[9] = target: T1, Dual specificity tyrosine-phosphorylation-regulated kinase 3 (Homo sapiens, UniProt O43781); assay: Inhibition of DYRK3 (unknown origin)
T1 sequence (O43781 whole entry): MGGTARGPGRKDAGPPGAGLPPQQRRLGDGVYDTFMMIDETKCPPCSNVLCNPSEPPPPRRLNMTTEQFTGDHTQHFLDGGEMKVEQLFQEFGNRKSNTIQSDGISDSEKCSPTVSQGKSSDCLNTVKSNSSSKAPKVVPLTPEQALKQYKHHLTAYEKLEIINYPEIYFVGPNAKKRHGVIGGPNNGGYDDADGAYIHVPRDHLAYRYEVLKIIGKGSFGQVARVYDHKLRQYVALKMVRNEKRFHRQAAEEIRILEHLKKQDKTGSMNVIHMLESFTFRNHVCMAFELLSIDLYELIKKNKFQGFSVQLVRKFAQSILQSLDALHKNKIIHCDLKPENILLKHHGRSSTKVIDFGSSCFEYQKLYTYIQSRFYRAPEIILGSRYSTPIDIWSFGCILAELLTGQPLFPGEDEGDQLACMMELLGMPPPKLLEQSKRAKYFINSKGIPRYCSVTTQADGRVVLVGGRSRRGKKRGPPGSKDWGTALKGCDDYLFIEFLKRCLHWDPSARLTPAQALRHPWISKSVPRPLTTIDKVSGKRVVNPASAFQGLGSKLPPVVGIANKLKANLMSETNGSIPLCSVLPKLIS

[10] = target: Dual specificity protein kinase CLK3 (Homo sapiens, UniProt P49761); assay: Inhibition of CLK3 (unknown origin)
CDK9/cyclin T1 = CDK9/cyclin T1 (Homo sapiens, UniProt P50750); assay: Inhibition of CDK9/cyclin T (unknown origin); assay type: protein-complex assay
[11] = target: Dual specificity tyrosine-phosphorylation-regulated kinase 1A (Rattus norvegicus, UniProt Q63470); assay: Inhibition of rat DYRK1A assessed as inhibition of phosphate incorporation using GRSRSRSRSRSR and [gamma-33P]ATP as substrate after 30 mins by scintillation counting analysis
[12] = target: T2, Dual specificity tyrosine-phosphorylation-regulated kinase 2 (Homo sapiens, UniProt Q92630); assay: Inhibition of DYRK2 (unknown origin)
T2 sequence (Q92630 whole entry): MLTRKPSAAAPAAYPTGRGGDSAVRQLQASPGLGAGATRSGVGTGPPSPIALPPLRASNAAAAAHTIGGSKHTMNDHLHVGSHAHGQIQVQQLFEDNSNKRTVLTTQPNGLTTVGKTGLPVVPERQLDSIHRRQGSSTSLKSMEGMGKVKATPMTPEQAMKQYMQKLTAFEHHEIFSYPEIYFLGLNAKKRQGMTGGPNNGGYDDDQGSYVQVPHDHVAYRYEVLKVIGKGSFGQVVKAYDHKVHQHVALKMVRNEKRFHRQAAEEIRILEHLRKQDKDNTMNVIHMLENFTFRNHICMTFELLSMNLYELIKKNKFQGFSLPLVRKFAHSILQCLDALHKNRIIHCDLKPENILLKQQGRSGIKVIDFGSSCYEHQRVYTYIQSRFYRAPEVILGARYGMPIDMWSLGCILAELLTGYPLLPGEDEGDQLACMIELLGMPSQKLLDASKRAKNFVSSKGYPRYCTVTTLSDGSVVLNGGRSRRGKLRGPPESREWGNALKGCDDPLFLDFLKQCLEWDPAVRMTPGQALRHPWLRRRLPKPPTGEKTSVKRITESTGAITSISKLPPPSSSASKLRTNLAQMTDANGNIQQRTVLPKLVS

[13] = target: Dual specificity tyrosine-phosphorylation-regulated kinase 1B (Homo sapiens, UniProt Q9Y463); assay: Inhibition of DYRK1B (unknown origin)
[14] = target: Dual specificity protein kinase CLK4 (Homo sapiens, UniProt Q9HAZ1); assay: Inhibition of CLK4 (unknown origin)
[15] = target: Cyclin-dependent kinase 5/CDK5 activator 1 (Homo sapiens, UniProt Q00535); assay: Inhibition of CDK5/p25 (unknown origin) assessed as inhibition of phosphate incorporation using histone 1 and [gamma-33P]ATP as substrate after 30 mins by scintillation counting analysis; assay type: protein-complex assay
[16] = target: Dual specificity protein kinase CLK1 (Mus musculus, UniProt P22518); assay: Inhibition of mouse recombinant GST-fused CLK1 expressed in Escherichia coli cells assessed as inhibition of phosphate incorporation using GRSRSRSRSRSR and [gamma-33P]ATP as substrate after 30 mins by scintillation counting analysis
[17] = target: Dual specificity protein kinase CLK2 (Homo sapiens, UniProt P49760); assay: Inhibition of CLK2 (unknown origin)
[18] = target: Glycogen synthase kinase-3 (Sus scrofa, UniProt B2LUN4+I6LNT8); assay: Inhibition of GSK3 alpha/beta in porcine brain assessed as inhibition of phosphate incorporation using YRRAAVPPSPSLSRHSSPHQSpEDEEE and [gamma-33P]ATP as substrate after 30 mins by scintillation counting analysis

Cyclin-dependent kinase 5, sequence (Q00535 whole entry): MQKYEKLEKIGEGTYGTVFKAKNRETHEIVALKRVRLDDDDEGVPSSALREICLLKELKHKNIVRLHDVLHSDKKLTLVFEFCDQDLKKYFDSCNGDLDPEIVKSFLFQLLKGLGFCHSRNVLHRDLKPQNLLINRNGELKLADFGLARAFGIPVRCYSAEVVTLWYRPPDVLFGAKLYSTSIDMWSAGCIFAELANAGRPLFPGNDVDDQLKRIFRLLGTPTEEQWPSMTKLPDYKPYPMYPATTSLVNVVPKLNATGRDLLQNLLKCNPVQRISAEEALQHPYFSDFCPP
Cyclin-dependent kinase 1, sequence (P06493 whole entry): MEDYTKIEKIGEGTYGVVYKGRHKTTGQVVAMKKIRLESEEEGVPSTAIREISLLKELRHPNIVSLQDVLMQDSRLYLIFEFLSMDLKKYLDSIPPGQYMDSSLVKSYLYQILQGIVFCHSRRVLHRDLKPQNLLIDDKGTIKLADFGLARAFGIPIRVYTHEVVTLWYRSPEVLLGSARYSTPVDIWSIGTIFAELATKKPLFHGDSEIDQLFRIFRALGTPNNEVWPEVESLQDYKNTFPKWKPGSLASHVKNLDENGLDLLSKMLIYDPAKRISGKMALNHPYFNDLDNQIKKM
Dual specificity protein kinase CLK1 (Mus musculus), sequence (P22518 whole entry, looked up): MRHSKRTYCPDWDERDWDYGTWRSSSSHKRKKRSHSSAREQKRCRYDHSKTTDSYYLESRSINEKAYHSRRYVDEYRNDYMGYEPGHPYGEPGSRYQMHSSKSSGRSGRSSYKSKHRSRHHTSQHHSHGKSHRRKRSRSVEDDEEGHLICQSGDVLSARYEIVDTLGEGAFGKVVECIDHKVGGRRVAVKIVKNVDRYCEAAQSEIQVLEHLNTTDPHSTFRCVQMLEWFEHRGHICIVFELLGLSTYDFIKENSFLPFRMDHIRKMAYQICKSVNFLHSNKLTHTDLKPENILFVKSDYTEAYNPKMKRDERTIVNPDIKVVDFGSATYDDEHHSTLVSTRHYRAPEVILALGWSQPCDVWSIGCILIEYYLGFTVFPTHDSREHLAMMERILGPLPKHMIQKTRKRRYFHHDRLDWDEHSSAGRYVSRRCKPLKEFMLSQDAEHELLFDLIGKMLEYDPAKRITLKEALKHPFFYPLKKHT
Dual specificity protein kinase CLK3, sequence (P49761 whole entry): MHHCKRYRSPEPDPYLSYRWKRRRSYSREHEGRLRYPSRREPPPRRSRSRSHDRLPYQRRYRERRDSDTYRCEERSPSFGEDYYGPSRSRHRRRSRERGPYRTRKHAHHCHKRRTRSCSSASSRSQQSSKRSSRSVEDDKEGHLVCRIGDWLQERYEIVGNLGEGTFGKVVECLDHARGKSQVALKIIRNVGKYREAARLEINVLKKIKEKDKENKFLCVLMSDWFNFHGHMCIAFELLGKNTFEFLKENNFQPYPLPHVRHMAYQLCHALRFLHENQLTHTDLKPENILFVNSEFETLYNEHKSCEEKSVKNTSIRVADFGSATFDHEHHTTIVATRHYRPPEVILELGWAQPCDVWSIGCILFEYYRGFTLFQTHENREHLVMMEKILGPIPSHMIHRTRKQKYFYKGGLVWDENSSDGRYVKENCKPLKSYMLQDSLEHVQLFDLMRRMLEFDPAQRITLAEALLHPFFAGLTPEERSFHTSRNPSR
Cyclin-dependent kinase 5/CDK5 activator 1, sequence (Q00535 whole entry, the tested form may be a part): as the sequence (Q00535 whole entry) above
Cyclin-dependent kinase 5/CDK5 activator 1, sequence (Q15078 whole entry, further chain, the tested form may be a part): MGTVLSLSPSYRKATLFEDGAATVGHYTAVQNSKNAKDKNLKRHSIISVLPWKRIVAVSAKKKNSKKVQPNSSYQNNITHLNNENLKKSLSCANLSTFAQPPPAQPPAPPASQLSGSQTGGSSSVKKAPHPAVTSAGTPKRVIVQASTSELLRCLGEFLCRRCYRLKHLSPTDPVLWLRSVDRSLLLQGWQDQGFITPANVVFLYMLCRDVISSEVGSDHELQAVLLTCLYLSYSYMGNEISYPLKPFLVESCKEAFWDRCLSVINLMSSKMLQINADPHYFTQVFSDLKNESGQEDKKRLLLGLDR
Dual specificity tyrosine-phosphorylation-regulated kinase 1B, sequence (Q9Y463 whole entry): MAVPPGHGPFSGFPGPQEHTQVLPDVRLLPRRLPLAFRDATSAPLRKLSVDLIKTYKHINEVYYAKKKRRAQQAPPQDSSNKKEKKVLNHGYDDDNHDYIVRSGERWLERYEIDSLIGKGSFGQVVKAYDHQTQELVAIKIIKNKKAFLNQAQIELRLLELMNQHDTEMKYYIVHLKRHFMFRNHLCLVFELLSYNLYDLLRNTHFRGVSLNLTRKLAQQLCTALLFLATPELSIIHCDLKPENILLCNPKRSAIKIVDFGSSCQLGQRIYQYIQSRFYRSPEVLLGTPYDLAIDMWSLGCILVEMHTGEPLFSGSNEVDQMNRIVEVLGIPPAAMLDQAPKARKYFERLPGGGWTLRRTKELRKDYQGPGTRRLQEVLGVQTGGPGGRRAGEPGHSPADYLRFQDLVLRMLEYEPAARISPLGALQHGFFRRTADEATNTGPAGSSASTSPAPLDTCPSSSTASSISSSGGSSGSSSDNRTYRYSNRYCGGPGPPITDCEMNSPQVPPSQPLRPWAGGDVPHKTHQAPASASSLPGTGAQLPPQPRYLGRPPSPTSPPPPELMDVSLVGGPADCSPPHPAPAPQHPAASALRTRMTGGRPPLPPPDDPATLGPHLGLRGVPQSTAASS
Dual specificity protein kinase CLK4, sequence (Q9HAZ1 whole entry): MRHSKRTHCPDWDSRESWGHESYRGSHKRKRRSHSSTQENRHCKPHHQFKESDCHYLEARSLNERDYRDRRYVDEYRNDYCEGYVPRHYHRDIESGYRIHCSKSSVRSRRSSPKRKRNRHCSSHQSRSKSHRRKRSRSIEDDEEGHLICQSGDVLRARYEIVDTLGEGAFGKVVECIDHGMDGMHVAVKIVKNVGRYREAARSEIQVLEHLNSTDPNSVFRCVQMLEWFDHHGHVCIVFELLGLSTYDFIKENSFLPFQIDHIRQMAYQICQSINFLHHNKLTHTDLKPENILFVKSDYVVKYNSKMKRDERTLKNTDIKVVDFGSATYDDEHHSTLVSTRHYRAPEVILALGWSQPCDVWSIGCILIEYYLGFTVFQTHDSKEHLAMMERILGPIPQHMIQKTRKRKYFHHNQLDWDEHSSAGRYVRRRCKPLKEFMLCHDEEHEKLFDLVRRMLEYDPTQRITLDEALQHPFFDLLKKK
Dual specificity protein kinase CLK2, sequence (P49760 whole entry): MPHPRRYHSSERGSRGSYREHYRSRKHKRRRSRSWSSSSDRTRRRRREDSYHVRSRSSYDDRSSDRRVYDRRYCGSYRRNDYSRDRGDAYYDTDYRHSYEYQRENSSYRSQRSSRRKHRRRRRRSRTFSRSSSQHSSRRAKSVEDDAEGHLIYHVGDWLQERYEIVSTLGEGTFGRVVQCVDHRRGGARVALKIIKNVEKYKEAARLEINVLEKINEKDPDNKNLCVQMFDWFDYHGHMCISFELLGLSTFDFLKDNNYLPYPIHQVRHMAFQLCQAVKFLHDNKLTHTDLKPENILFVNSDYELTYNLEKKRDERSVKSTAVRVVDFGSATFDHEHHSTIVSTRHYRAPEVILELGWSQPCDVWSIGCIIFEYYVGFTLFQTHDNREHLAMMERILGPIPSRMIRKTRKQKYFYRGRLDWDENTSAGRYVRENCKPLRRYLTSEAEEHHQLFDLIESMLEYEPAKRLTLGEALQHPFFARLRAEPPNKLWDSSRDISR
Dual specificity protein kinase CLK1, sequence (P22518 whole entry, the tested form may be a part): as the sequence (P22518 whole entry, looked up) above
CDK9/cyclin T1, sequence (O60563 whole entry): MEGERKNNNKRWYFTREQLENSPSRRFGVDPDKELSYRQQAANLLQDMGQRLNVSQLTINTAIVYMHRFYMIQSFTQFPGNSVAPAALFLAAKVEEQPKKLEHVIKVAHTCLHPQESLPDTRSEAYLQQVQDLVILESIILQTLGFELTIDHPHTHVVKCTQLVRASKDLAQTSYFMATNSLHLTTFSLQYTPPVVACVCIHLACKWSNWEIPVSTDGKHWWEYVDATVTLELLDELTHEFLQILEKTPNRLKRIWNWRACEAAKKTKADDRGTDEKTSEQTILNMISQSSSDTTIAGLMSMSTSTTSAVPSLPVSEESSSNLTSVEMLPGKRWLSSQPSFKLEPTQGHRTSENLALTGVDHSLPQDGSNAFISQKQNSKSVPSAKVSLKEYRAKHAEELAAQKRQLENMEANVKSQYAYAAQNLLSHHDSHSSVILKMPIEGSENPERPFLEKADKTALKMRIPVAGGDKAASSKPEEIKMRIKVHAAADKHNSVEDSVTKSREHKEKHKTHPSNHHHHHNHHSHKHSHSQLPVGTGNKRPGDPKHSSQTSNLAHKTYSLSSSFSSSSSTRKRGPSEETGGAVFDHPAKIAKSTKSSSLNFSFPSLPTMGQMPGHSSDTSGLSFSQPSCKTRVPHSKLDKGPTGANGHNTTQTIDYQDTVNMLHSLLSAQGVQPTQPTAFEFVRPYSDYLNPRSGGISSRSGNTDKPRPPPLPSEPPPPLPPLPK
CDK9/cyclin T1, sequence (P50750 whole entry): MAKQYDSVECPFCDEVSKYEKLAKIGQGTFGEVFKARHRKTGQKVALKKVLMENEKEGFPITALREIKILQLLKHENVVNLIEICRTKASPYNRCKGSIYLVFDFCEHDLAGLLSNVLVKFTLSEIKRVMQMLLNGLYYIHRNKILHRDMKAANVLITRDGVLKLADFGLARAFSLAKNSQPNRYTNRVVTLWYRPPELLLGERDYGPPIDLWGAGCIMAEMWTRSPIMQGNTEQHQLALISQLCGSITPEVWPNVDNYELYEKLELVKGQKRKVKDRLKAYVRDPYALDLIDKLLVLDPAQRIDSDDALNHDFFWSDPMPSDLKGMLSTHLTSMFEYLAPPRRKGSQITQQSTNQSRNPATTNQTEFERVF

Compound: Cn1c2c(O)cccc2c(=O)c2c3c(c4c(c21)C=CC(C)(C)O4)C=C(O)C(C)(C)O3
- IC50 [1]: > 10 µM
- IC50 [2]: > 10 µM
- IC50 [3]: > 10 µM
- IC50 [4]: > 10 µM
- IC50 [5]: > 10 µM
- IC50 [6]: > 10 µM

Compound: Cn1c2c(O)cccc2c(=O)c2c3occc3c3c(c21)C=CC(C)(C)O3
- IC50 [1]: > 10 µM
- IC50 [2]: > 10 µM
- IC50 [3]: > 10 µM
- IC50 [4]: 7 µM
- IC50 [5]: > 10 µM
- IC50 [6]: 5.7 µM

Compound: COc1c(O)ccc2c(=O)c3c(O)cc4c(c3[nH]c12)C=CC(C)(C)O4
- IC50 [7]: 1.1 µM
- IC50 [8]: 8.7 µM
- IC50 (CDK2/Cyclin A2): 8.2 µM
- IC50 [1]: 5.3 µM
- IC50 [9]: 1.2 µM
- IC50 [10]: 2.3 µM
- IC50 (CDK9/cyclin T1): 0.82 µM
- IC50 [2]: 9 µM
- IC50 [11]: 0.09 µM
- IC50 [3]: > 10 µM
- IC50 [12]: 1.7 µM
- IC50 [13]: 0.35 µM
- IC50 [14]: 0.22 µM
- IC50 [15]: > 10 µM
- IC50 [4]: 0.17 µM
- IC50 [16]: 0.21 µM
- IC50 [17]: 0.68 µM
- IC50 [5]: 2 µM
- IC50 [6]: 0.075 µM
- IC50 [18]: 0.71 µM

Compound: O=C1Nc2cc(Br)ccc2/C1=C1/Nc2ccccc2/C1=N\O [6BIO]
- IC50 [6]: 0.052 µM

Compound: CC1(C)C=Cc2c(cc(O)c3c(=O)c4cccc(O)c4[nH]c23)O1 [ATOLAPHYLLIDINE]
- IC50 [1]: > 10 µM
- IC50 [2]: > 10 µM
- IC50 [3]: > 10 µM
- IC50 [4]: ≥ 10 µM
- IC50 [5]: > 10 µM
- IC50 [6]: 2.2 µM
